# Experimental data reported in PubChem BioAssay (NCI).
#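 Assay format: 96-well plates, 48-hour exposure. GI50 = concentration required for 50% inhibition of growth. TGI: concentration producing complete growth inhibition.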
# What was measured:
# Experiment in all cases: growth of human tumour cells (NCI), 48 h
# LOX IMVI melanoma = system: LOX IMVI melanoma
# SK-MEL-28 melanoma = system: SK-MEL-28 melanoma
# HCT-116 colon = system: HCT-116 colon
# NCI-H226 lung = system: NCI-H226 lung
# IGROV1 ovarian = system: IGROV1 ovarian
# MDA-MB-231 breast = system: MDA-MB-231 breast
# HL-60(TB) leukemia = system: HL-60(TB) leukemia
# EKVX NSCLC = system: EKVX NSCLC
# HCC-2998 colon = system: HCC-2998 colon
# MCF7 breast = system: MCF7 breast
Structure (SMILES),GI50 (LOX IMVI melanoma),TGI (LOX IMVI melanoma),GI50 (SK-MEL-28 melanoma),TGI (SK-MEL-28 melanoma),GI50 (HCT-116 colon),TGI (HCT-116 colon),GI50 (NCI-H226 lung),TGI (NCI-H226 lung),GI50 (IGROV1 ovarian),TGI (IGROV1 ovarian),GI50 (MDA-MB-231 breast),TGI (MDA-MB-231 breast),GI50 (HL-60(TB) leukemia),TGI (HL-60(TB) leukemia),GI50 (EKVX NSCLC),TGI (EKVX NSCLC),GI50 (HCC-2998 colon),TGI (HCC-2998 colon),GI50 (MCF7 breast),TGI (MCF7 breast)
COC(C)(C)[C@@H](O)[C@H](O)C[C@H](C)C1=C2CC[C@@H]3[C@@]4(C)CC[C@@H](OC(C)=O)C(C)(C)[C@@H]4C[C@@H](OC4OC(COC(C)=O)C(O)C(O)C4O)[C@@]3(C)[C@]2(C)CC1 (stereo partly drawn),6.36 µM,19.6 µM,11.7 µM,24.2 µM,6.09 µM,19.2 µM,13.3 µM,26.7 µM,13.1 µM,26.2 µM,11.6 µM,23.8 µM,3.6 µM,16 µM,13 µM,26.2 µM,4 µM,13.4 µM,2.62 µM,12.4 µM
Cc1ccc(/C=C(\C#N)c2cc3ccccc3n2C)cc1,0.542 µM,> 100 µM,> 100 µM,> 100 µM,0.361 µM,> 100 µM,1.45 µM,> 100 µM,0.544 µM,> 100 µM,0.671 µM,> 100 µM,0.277 µM,2.56 µM,0.58 µM,> 100 µM,0.484 µM,> 100 µM,0.305 µM,> 100 µM
CN(C)C(=O)Nc1nc2cc(Cl)c(Cl)cc2[nH]1,1.87 µM,> 100 µM,8.63 µM,> 100 µM,0.463 µM,> 35 µM,2.83 µM,> 100 µM,1.15 µM,> 100 µM,3.42 µM,> 100 µM,0.241 µM,,5.3 µM,> 100 µM,2.5 µM,> 47.1 µM,0.367 µM,> 100 µM
CN(C)c1ccc(Nc2c3ccccc3nc3ccccc23)cc1,0.585 µM,2.26 µM,1.36 µM,2.84 µM,0.38 µM,1.7 µM,1.04 µM,2.68 µM,0.59 µM,2.91 µM,1.3 µM,3.32 µM,0.84 µM,3.61 µM,1.4 µM,6.35 µM,1.41 µM,3.93 µM,0.471 µM,3.44 µM
Cc1ccc2nc3ccccc3c(NCc3ccc(Cl)cc3)c2c1,2.07 µM,7.46 µM,6.42 µM,13.1 µM,2.15 µM,8.27 µM,6.77 µM,17 µM,2.95 µM,10.2 µM,5.16 µM,12.2 µM,5.28 µM,13.5 µM,6.45 µM,13 µM,1.02 µM,2.02 µM,1.94 µM,8.82 µM
O=C(CCN1CCCC1)Nc1ccc2c(NCc3ccccc3)c3ccccc3nc2c1,0.328 µM,1.31 µM,1.17 µM,2.49 µM,0.309 µM,1.31 µM,0.551 µM,2.91 µM,0.383 µM,1.67 µM,0.377 µM,1.59 µM,0.587 µM,2.8 µM,0.448 µM,2.34 µM,0.466 µM,2.02 µM,0.286 µM,1.18 µM
NC(=N\N=C/c1ccc(O)cc1)/C(N)=N\N=C/c1ccc(O)cc1,0.435 µM,> 100 µM,> 100 µM,> 100 µM,> 100 µM,> 100 µM,> 100 µM,> 100 µM,> 59.6 µM,> 100 µM,10.7 µM,> 100 µM,0.251 µM,,> 87.9 µM,> 100 µM,8.56 µM,> 100 µM,> 100 µM,> 100 µM
C[C@H]1[C@H](C)N1CC(O)Cn1ccnc1[N+](=O)[O-] (stereo partly drawn),,> 100 µM,,> 100 µM,,> 100 µM,,> 100 µM,,> 100 µM,,> 100 µM,,> 100 µM,,> 100 µM,,> 100 µM,,> 100 µM
[2H]C([2H])([2H])NC(=O)c1nnc(NC(=O)C2CC2)cc1Nc1cccc(-c2ncn(C)n2)c1OC,14.5 µM,> 100 µM,> 100 µM,> 100 µM,9.79 µM,> 100 µM,> 100 µM,> 100 µM,6.96 µM,> 100 µM,19.1 µM,> 100 µM,14 µM,82.6 µM,81.4 µM,> 100 µM,96.3 µM,> 100 µM,92.9 µM,> 100 µM
C/C(=C\c1ccn(-c2ccccc2N)n1)[C@@H]1C[C@@H]2O[C@]2(C)CCC[C@H](C)[C@H](O)[C@@H](C)C(=O)C(C)(C)[C@@H](O)CC(=O)O1,0.0331 µM,> 50 µM,1.07 µM,> 50 µM,0.0191 µM,> 50 µM,7.14 µM,> 50 µM,0.247 µM,> 50 µM,0.247 µM,> 50 µM,0.0329 µM,0.228 µM,0.684 µM,> 50 µM,0.0467 µM,> 18.3 µM,0.0168 µM,> 50 µM
